Assay results: patent US6890954B1, “Uses of 2-bromopalmitate in the treatment of autoimmune disease” (priority 1999, dated 2005)

Key:
Type in all cases: cell-based
Fyn [1] = test: Subcellular fractionation (P100/S100) of Fyn in COS-1 cells
Description: Each 60 mm plate of Fyn transfected COS-1 cells was starved for […] in DMEM containing 2.5% FBS and 0.5% defatted BSA with or without 100 μM 2-bromopalmitate. After overnight culture at 37° C., the cells were fractionated into P100 and S100 fractions, immunoprecipitated with anti-Fyn antibody, subjected to SDS-PAGE, and immunoblotted with anti-Fyn antibody as previously described (9,12,13).
(§1) For analysis of newly synthesized Fyn, cells were cultured overnight as descibed above, then starved for 1 hr in DMEM minus methionine and cysteine containing 2% dialyzed FBS, 0.5% defatted BSA with or without 100 μM 2-bromopalmitate. Cells were labeled for 5 minutes with Trans^35S-Label (ICN, Irvine, Calif.), then fractionated as described above. Gels were treated for 20 minutes with 1M salicylic acid prior to drying. The Gαo(10)-Fyn chimera was labeled for 5 min and GAP-43 Fyn chimera was labeled for 2 hours and fractionated according to the above conditions.
Newly synthesized Fyn becomes plasma membrane bound within 5 minutes after biosynthesis (12). The rapid membrane targeting is dependent on dual fatty acylation of Fyn with myristate and palmitate. The effect of 2-bromopalmitate on the ability of newly synthesized Fyn to localize to membranes was next examined. Transfected COS-1 cells were incubated for 12-16 hours with or without 100 μM 2-bromopalmitate. […]

Fyn [2] = test: Localization of Fyn to Triton X-100 insoluble fractions in COS-1 cells; settings: COS-1, 1% Triton X-100 extraction; untreated: majority detergent resistant
Description: Isolation of Triton X-100 resistant and soluble fractions was carried out as described previously (12). Isolation of detergent resistant microdomains by sucrose gradients were carried out as follows (19): Jurkat cells (5×10^7) were treated with 2-bromopalmitate, activated with OKT3 mAb as described above, and lysed in 1 ml lysis buffer (25 mM MES pH 6.5, 150 mM NaCl, 0.5% Triton X-100, 1 mM Na3VO4) supplemented with protease inhibitors for 30 minutes at 0° C. After homogenizing 10 times with a loose fit Dounce homogenizer, lysates were mixed with 1 ml 85% sucrose in MBS (25 mM MES pH 6.5, 150 mM NaCl), and overlayered with 6 ml 30% sucrose in MBS, then with 4 ml 5% sucrose in MBS. Following centrifugation for 16 hours at 145,000 g in an SW40 rotor, 1 ml fractions were collected and analyzed by PAGE and immunoblotting with anti-Fyn, anti-LAT, or anti-Lck antibodies.
Previous experiments have shown that following rapid membrane binding of newly synthesized Fyn, there is a slower partitioning of Fyn (10-20 minutes) to regions of the plasma membrane that are resistant to Triton X-100 extraction at 4° C. (12). Therefore the effect of 2-bromopalmitate on the localization of Fyn to Triton X-100 insoluble fractions was examined. Transfected COS-1 cells were left untreated or treated with 2-bromopalmitate as described above. […]

GαO(10)-Fyn = test: Membrane binding of Gαo(10)-Fyn chimera in COS-1 cells; settings: COS-1, 2-bromopalmitate overnight, 5 min label
Description: as §1
Each of these three sequences was appended onto the Fyn protein. Gαo(10)-Fyn and GAP43(10)-Fyn are chimeric constructs with the first 10 amino acids of Gαo or GAP-43, respectively, in place of the first 10 amino acids of wt Fyn. These constructs have been previously described (12,13). In addition, the H-Ras tail was fused to the C-terminus of a non-acylated Fyn mutant (G2A,C3SFyn-HRas). This construct contains full length Fyn with mutations in the N-terminal myristoylation and palmitoylation sites, but with the C-terminus of H-Ras available for prenylation and palmitoylation.

Fyn [3] = target: T1, Fyn (Homo sapiens, UniProt P06241); test: Fyn fatty acylation (IC13/IC16) in transfected Jurkat T cells; settings: 100 μM, 3 hours preincubation
T1 construct: expressed in transfected cells; host or cells: COS-1
Description: The syntheses of 13-[^125I]-iodotridecanoic acid (IC13)or 16-[^125I]-iodohexanoic acid (IC16) were carried out as described previously (39). Cell labeling was carried out as described (12,13) with modifications. Briefly, each 60 mm plate of Fyn transfected COS-1 cells was incubated O/N in DMEM containing 2.5% FBS, 0.5% defatted BSA (Sigma) with or without 100 μM 2-bromopalmitate or 50 μM polyunsaturated fatty acid. Prior to labeling, the cells were incubated for 1 hr with 1 ml of DMEM containing 2% dialyzed FBS, then labeled for 4 hours with 25-50 μCi IC13 or IC16 in DMEM containing 2% dialyzed FBS, 0.5% defatted BSA with or without 2-bromopalmitate or polyunsaturated fatty acid. Labeled cells were washed three times with cold STE (100 mM NaCl, 10 mM Tris pH 7.4, 1 mM EDTA) and lysed in 0.6 ml of cold RIPA buffer containing protease inhibitors (10 μg/ml each of benzamidine, AEBSF, TPCK and TLCK, 1.5 μg/ml each of Leupeptin, Pepstatin A and Aprotinin). Lysates were clarified at 100,000×g for 15 min at 4° C. in a Beckman TL-100 ultracentrifuge. […] Gels were dried between cellophane and analyzed by phosphorimaging after 12-36 hours exposure. […]
The Src family kinases Fyn and Lck play critical roles in T cell receptor (TCR) mediated signaling. […] Total protein levels were monitored by immunoprecipitation followed by immunoblotting with anti-Fyn antibody.

MAP kinase = test: Activation of MAP kinase in Jurkat cells (pERK immunoblot); settings: OKT3 activated, pERK1 blot
Description: Jurkat cells were treated with 2-bromopalmitate and activated as described above. Lysates were analyzed for the presence of active MAP kinase by immunoblotting with a pERK antibody, and for total MAP kinase by immunoblotting with an anti MAPK antibody.
One of the proximal events following T cell receptor engagement is activation of the MAP Kinase pathway. The ability of 2-bromopalmitate to inhibit activation of MAP kinase was examined in Jurkat cells. Cells were cultured with or without 2bromo-palmitate and activated as described above. Cell lysates were subjected to SDS-PAGE and immunoblotted with anti-active MAPK kinase (pERK1). As depicted in FIG. 7, 2-bromopalmitate inhibited the activation of MAPK kinase by 70%. The levels of total MAPK kinase remained unchanged (FIG. 7).

T1 sequence (P06241 whole entry, species assumed): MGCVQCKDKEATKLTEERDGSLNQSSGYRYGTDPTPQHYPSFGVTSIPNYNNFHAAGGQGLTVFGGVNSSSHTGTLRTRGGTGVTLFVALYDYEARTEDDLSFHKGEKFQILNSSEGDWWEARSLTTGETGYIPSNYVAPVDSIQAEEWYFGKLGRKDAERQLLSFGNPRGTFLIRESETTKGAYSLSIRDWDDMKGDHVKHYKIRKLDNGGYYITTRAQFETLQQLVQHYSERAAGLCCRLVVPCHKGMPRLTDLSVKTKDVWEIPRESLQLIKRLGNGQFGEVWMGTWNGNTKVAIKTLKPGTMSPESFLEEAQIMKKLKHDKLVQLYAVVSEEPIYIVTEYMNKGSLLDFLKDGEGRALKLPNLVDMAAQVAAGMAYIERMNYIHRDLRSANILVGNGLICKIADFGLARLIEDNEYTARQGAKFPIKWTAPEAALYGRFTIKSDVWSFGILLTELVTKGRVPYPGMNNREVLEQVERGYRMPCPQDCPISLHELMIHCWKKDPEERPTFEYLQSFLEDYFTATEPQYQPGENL

## CCCCCCCCCCCCCCC(Br)C(=O)O (stereo not shown) [2-bromopalmitate]
Fyn [1]; COS-1, 100 μM for 12-16 hours, 5 min 35S label, untreated 90% membrane bound
  newly synthesized Fyn remaining cytosolic: 50%
Fyn [1]; COS-1, 100 μM, Western blot, data not shown
  steady-state Fyn fractionating in the cytosol: 50%
Fyn [2]
  Fyn association with detergent resistant vs soluble fraction: mostly soluble
GαO(10)-Fyn
  inhibition of membrane binding of GαO(10)-Fyn: to the same extent as wt Fyn
Fyn [3]; IC13
  Fyn myristoylation inhibited relative to untreated controls: 75%
Fyn [3]; IC16
  Fyn palmitoylation inhibited relative to untreated controls: 90%
MAP kinase
  activation of MAPK kinase inhibited: 70%
